{"source": "patent US20080070249A1", "about": "“Novel Activating Agent of Glucose Uptake and a Screening Method Therefor” (ASTELLAS PHARMA INC., priority 2005, published 2008)", "key": {"human PGC-1β promoter": {"system": "human PGC-1β promoter", "test": "human PGC-1β promoter luciferase reporter (phPGC1β (1.0) Luc) in L6 cells", "type": "cell-based", "details": "final concentration of 1 μmol/L to 10 μmol/L, 24 hours", "procedure": "phPGC1β (1.0) Luc plasmid constructed in Example 9, in accordance with the following procedures. L6 cells were cultivated in a tissue culture dish having a diameter of 10 cm to become 80% confluent. The cells were cotransfected with 5 μg of the phPGC1β (1.0) Luc plasmid and 1 μg of plasmid pCH110 (Pharmacia Biotech) using a regent for transfection (FuGENE™ T6, Roche, Cat. No. 1815091). In this connection, the plasmid pCH110 containing a β-galactosidase gene regulated by a β-actin promoter was used to standardize an efficiency of transfection. After 24 hours from the transfection, the cells were transferred to a 96-well tissue culture dish, and further cultured for 6 hours. Since it was reported that the combination of forskolin and dexamethasone induced an expression of endogenous PGC-1 in hepatocytes [J. Biol. Chem., 278: 30843 (2003)], the cells were treated with 10 μmol/L (final concentration) forskolin and 1 μmol/L dexamethasone [solvent=dimethyl sulfoxide (DMSO)] for 24 hours. After the treatment, the cells were lysed with a solution for cell lysis (LCβ; Toyo Ink, Japan), and a luciferase activity therein was measured using a PicaGene luminescence kit (Toyo Ink, Japan, 309-04321). In this connection, the activity was measured 3 times per group, and each experiment was repeated at least twice, to confirm the reproducibility. […]"}, "differentiated L6 cells": {"system": "differentiated L6 cells", "test": "activity of glucose uptake (2-deoxy-D-[U-14C] glucose) in differentiated L6 cells", "type": "cell-based, rat", "details": "compound at 1 μmol/L to 10 μmol/L for 24 hours, FIG. 5", "procedure": "A tissue into which the largest amount of glucose can be incorporated in a living body is muscle. In this example and the following examples, a rat myoblast L6 was used to detect an activity of glucose uptake in vitro. L6 cells (ATCC, CRL-1458) were maintained in a Dulbecco's modified Eagle's medium (GIBCO BRL, USA, 11995-065) supplemented with 10% fetal bovine serum (JRH BIOSCIENCES, Cat. No. 12303-500M), and cultured in a humid atmosphere containing 5% CO2 at 37° C. When the L6 cells were confluent, the medium was changed to a Dulbecco's modified Eagle's medium supplemented with 2% horse serum (GIBCO, Cat. No. 16050), and further cultured for 5 days to perform an induction of differentiation.\nThe cells overexpressing human PGC-1β or human PGC-1α, prepared in accordance with the procedures described in Example 4, were used to measure an activity of glucose uptake. After 48 hours from the infection, the cells were rinsed with 1 mL of a KRP buffer ([…], 4.7 mmol/L KCl, 1.25 mmol/L CaCl2.2H2O, 1.25 mmol/L MgSO4.7H2O, and 5 mmol/L Na2HPO4.12H2O), and further cultured in 500 μL of KRP for 1 hour. […] Each lysate was mixed with 2 mL of a liquid scintillator (AQUASOL 2, PERKINELMER, Cat. No. 6NE9529), and an amount of radiolabeled compound (radioactivity, CPM) incorporated into the cells was measured using a liquid scintillation counter (PACKARD, B2500TR). […]"}}}
{"smiles": "Nc1cccc(-c2nc3cc(C(=O)c4ccccc4)ccc3[nH]2)c1", "note": "[compound A, 2-(3-aminophenyl)-5-benzoyl-(1H)-benzimidazole]", "values": [{"measurement": "activating activity of the human PGC-1β promoter (reporter luciferase activity) in comparison with absence of the compound", "setting": "human PGC-1β promoter", "result": "≥ 2", "unit": "times"}, {"measurement": "activity of glucose uptake in muscle cells", "setting": "differentiated L6 cells", "result": "significantly activated glucose uptake"}]}
